The text below walks through data of ChEMBL document CHEMBL1201862, “PubChem BioAssay data set” (2004).

Active and inactive are the calls of the source. Cut-off read from the data, not from the text of the source, for most assays here: actives have a measured EC50 and inactives only a lower limit.

The target in one experiment is Genome polyprotein (dengue virus type 2, UniProt P29990). The experiment in a line: flavivirus cap methylation enzyme inhibition – biochemical, confirmation dose response, primary screen (AID 588689). Type of experiment: functional.
The next experiment relates to Vero. Nature of the experiment: viability of Vero cells under compound – cytotoxicity control for flavivirus capping enzyme inhibitors (AID 588742). Type of experiment: functional. As to conditions: Chlorocebus sabaeus.
Experiment [1] has as its target Serine/threonine-protein phosphatase (Candida dubliniensis (strain CD36 / CBS 7987 / NCPF 3949 / NRRLY-17841) (Yeast), UniProt B9W6M3). Nature of the experiment: blockers of CaCl2-induced CDRE-lacZ signaling – S. cerevisiae, luminescence, secondary, dose response (AID 2388).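 Note: yeast reporter cells carrying a calcineurin-responsive lacZ construct stimulated with calcium chloride; luminescent beta-galactosidase reporter signal in whole cells rather than isolated phosphatase activity; potency for inhibition where a drop in reporter signal means calcineurin blockade.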 It counts as functional, cell-based.
The nature of experiment [2]: NIH-3T3 fibroblast cytotoxicity, dose response, cytotoxicity control, cell-based, fluorescence, Alamar Blue, secondary assay (AID 2327).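 Note: NIH-3T3 mouse fibroblasts cultured with fluconazole at 8 µg/mL.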 It counts as functional. A general note: Alamar Blue is a resazurin reagent that responds to reducing activity.
In experiment [3] the target is ATP-dependent molecular chaperone HSP82 (Candida albicans (strain WO-1) (Yeast), UniProt C4YTQ8). Nature of the experiment: steroid-induced GRE reporter decrease in yeast – S. cerevisiae, luminescence, Hsp90 inhibitor project, dose response (AID 2400).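 Note: beta-galactosidase luminescence from glucocorticoid response element reporter as proxy for Hsp90 function; inhibitor potency where signal loss means Hsp90 inhibition.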 It counts as functional, cell-based.
Experiment [4] can be described thus: fluconazole-exposed Candida albicans growth modulators – fluorescence, retest, confirmation (AID 2467). Type of experiment: functional, cell-based.
In another experiment the test system is Streptococcus. Nature of the experiment: GAS UMAA2166 growth inhibition – luminescence, BacTiterGlo, counter-screen for streptokinase expression inhibitor project, dose response (AID 1915).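 Note: potency for reduction of bacterial viability or growth.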 It counts as functional, organism-based. On the technique in general: Counterscreens check selectivity or assay interference.
The target in experiment [5] is Heat shock protein HSP 90-alpha (Homo sapiens, UniProt P07900). It counts as functional, organism-based.
Experiment [6] relates to Streptococcus sp. 'group A'. Nature of the experiment: Streptococcus pyogenes SK(-)GAS viability under kanamycin – luminescence, BacTiterGlo, confirmation, counter-screen for streptokinase expression inhibitor project, dose response (AID 1900). Type of experiment: functional, organism-based.
The target in experiment [7] is T1, Calpain-2 catalytic subunit (Sus scrofa, UniProt P43367).
T1 sequence (P43367 whole entry): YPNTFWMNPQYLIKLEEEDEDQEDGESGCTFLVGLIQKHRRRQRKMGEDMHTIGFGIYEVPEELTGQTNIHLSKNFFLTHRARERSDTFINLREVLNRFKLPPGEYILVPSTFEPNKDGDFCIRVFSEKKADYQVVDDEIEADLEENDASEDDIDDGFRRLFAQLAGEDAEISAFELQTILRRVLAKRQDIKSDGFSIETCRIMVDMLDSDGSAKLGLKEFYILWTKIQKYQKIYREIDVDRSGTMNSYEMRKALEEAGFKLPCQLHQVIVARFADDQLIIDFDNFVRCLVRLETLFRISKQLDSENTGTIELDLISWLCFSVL
The experiment in a line: m-calpain protease blockers, concentration series – biochemical, fluorogenic peptide substrate, dose response (AID 1420). It counts as functional.

Experiment [8] is described as follows: Luminescence Cell-Based Dose Confirmation HTS to Identify Activators of 5'UTR Stem-Loop Driven Alpha-Synuclein mRNA Translation in H4 Neuroglioblastoma Cells. [Related pubchem assays: 1829 (Project Summary), 1814 (Primary HTS)]. It counts as functional.
Experiment [9] is described as follows: Luminescence Cell-Based Dose Confirmation to Identify Activators of 5'UTR Stem-Loop Driven Alpha-Synuclein mRNA Translation in H4 Neuroglioblastoma Cells. [Related pubchem assays: 1829 (Project Summary), 1814 (Primary HTS)]. It counts as functional.
The nature of experiment [10]: Luminescence Cell-Based Dose Response HTS to Identify Activators of Luciferase Translation or Activity in H4 […] Cells. [Related pubchem assays: 1829 (Project Summary), 1814 (Primary HTS)]. It counts as functional.
Experiment [11] can be described thus: Luminescence Cell-Based Dose Response to Identify Activators of Luciferase Translation or Activity in H4-C Neuroglioblastoma Cells. [Related pubchem assays: 1829 (Project Summary), 1814 (Primary HTS)]. It counts as functional.
Another experiment relates to H4. Nature of the experiment: Luminescence Cell-Based Dose Response HTS to Identify Activators of 5'UTR Stem-Loop Driven Prion Protein mRNA Translation in H4 Neuroglioblastoma Cells. [Related pubchem assays: 1829 (Project Summary), 1814 (Primary HTS)]. Particulars: Homo sapiens. It counts as functional.
Experiment [12] can be described thus: Luminescence Cell-Based Dose Response to Identify Activators of 5'UTR Stem-Loop Driven Prion Protein mRNA Translation in H4-C Neuroglioblastoma Cells. [Related pubchem assays: 1829 (Project Summary), 1814 (Primary HTS)]. It counts as functional.
A further experiment concerns the target Hexokinase-1 (Homo sapiens, UniProt P19367). The experiment in a line: SAR analysis of small molecule inhibitors of hexokinase domain containing I (HKDC1) in the hexokinase 1 selectivity assay. [Related pubchem assays (depositor defined):AID493160, AID493190]. Type of experiment: functional.
In the next experiment the target is T2, Hexokinase HKDC1 (Homo sapiens, UniProt Q2TB90).
T2 sequence (Q2TB90 whole entry): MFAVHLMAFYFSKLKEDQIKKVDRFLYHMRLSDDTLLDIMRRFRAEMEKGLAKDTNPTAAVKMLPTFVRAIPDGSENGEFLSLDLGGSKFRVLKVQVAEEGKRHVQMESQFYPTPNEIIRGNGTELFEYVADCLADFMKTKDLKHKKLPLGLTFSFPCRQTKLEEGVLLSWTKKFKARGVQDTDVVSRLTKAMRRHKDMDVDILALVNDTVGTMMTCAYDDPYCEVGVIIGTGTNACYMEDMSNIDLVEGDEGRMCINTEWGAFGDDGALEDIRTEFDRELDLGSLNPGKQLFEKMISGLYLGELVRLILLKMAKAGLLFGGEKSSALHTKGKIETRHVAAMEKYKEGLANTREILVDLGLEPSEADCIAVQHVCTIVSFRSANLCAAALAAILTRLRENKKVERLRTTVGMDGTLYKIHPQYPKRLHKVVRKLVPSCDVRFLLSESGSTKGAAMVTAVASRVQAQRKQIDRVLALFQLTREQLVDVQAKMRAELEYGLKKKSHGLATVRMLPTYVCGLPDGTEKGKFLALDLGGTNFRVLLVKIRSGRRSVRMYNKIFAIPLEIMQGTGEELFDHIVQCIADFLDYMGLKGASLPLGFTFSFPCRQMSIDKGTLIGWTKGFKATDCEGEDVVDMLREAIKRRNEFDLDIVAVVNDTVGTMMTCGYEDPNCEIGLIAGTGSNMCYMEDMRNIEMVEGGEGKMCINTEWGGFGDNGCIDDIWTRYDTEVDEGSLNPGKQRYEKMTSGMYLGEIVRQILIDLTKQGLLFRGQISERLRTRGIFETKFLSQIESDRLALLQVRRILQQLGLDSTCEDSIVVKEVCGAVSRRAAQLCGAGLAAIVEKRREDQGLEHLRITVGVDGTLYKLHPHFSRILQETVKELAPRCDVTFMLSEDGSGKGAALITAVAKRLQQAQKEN
The experiment in a line: SAR analysis of small molecule inhibitors of hexokinase domain containing I (HKDC1). [Related pubchem assays (depositor defined):AID493160, AID493190]. It counts as functional.

Chain of Hexokinase-1 (P19367 whole entry, the tested form may be a part): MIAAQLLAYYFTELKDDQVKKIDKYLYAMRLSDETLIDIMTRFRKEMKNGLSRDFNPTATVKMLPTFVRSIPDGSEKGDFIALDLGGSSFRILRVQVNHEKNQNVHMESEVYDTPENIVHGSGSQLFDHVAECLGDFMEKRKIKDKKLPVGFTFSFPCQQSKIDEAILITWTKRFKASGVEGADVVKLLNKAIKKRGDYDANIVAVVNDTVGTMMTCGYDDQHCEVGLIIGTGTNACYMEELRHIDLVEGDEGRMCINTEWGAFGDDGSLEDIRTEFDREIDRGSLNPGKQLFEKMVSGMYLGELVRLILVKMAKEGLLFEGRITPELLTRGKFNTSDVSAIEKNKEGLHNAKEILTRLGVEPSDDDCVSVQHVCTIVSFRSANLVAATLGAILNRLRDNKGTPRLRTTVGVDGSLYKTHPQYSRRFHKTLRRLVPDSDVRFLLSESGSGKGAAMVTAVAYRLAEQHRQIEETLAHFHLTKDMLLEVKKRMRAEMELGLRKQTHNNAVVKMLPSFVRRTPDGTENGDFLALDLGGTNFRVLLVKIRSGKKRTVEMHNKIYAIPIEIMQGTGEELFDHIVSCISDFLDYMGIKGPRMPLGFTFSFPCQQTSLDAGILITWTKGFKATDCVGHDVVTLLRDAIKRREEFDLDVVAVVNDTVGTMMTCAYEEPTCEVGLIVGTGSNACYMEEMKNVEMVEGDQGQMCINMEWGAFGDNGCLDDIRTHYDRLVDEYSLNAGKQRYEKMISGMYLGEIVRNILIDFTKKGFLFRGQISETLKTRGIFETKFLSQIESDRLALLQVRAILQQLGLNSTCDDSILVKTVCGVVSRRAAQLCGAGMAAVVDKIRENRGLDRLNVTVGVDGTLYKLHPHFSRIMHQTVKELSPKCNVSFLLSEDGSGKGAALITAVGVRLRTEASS
Chain of ATP-dependent molecular chaperone HSP82 (C4YTQ8 whole entry): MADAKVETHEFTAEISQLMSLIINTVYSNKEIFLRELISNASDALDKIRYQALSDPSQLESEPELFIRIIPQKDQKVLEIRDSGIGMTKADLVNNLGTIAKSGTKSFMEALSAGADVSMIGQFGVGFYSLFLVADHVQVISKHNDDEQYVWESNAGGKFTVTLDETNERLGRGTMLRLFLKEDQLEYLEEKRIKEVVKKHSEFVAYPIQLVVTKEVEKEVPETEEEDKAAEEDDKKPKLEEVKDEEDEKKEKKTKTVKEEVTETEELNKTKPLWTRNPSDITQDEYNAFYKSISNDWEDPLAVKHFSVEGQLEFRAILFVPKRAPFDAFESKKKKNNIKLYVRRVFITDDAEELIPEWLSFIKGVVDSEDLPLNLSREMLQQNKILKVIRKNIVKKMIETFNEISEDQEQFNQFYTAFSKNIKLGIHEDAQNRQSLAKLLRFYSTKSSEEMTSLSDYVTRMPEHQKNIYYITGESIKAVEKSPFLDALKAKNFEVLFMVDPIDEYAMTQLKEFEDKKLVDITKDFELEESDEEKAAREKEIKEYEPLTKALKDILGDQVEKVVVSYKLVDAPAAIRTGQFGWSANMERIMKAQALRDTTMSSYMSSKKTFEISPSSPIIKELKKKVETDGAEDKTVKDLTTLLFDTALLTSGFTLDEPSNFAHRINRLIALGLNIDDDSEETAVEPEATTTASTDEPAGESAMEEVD
Chain of Genome polyprotein (P29990 2492-3391 limits assumed): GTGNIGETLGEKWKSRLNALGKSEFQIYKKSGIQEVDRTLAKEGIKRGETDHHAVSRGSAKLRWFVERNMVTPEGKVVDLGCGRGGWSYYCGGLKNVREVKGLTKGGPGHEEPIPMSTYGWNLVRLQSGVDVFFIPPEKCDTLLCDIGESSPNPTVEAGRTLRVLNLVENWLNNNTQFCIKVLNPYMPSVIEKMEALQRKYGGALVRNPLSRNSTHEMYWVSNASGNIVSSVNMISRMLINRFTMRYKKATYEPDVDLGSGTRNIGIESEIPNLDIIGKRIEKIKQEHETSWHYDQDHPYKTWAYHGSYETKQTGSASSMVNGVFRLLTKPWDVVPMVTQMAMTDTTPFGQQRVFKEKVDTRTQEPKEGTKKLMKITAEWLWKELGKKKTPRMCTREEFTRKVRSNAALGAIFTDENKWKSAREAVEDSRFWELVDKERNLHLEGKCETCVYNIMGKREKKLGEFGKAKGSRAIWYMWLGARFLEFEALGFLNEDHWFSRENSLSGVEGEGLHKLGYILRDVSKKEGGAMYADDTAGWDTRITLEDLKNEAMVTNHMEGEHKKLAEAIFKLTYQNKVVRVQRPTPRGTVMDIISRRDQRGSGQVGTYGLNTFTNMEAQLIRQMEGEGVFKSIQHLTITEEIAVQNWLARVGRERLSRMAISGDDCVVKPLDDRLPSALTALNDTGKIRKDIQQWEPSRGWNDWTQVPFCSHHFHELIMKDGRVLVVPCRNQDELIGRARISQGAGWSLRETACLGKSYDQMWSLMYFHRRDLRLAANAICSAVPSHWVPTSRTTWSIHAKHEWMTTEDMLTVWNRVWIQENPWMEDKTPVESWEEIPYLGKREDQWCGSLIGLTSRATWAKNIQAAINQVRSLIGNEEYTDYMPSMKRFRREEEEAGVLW
Chain of Serine/threonine-protein phosphatase (B9W6M3 whole entry): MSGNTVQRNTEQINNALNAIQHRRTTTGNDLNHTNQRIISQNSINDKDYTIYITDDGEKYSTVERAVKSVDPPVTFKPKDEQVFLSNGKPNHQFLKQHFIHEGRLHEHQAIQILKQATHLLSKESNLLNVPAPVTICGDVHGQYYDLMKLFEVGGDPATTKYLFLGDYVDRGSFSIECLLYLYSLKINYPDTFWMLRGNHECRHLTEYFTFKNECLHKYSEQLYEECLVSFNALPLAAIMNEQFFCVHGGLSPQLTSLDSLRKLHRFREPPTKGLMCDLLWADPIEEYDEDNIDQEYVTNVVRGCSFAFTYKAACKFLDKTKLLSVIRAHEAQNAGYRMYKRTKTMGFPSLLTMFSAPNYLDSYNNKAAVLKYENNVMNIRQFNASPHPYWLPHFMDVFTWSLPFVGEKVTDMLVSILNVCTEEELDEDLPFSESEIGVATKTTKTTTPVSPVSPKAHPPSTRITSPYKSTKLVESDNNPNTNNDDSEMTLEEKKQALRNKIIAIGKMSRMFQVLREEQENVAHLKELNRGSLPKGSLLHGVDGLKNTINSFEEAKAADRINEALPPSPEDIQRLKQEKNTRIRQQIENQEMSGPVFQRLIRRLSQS

As a reminder, the IC50 is the concentration at which inhibition is half-maximal. As usually defined, the CC50 is the concentration at which the toxic effect on the cells reaches its halfway point. `CSc1ccc(-c2sc(Nc3cccc4ccccc34)n[n+]2-c2ccccc2)cc1`: the IC50 on Genome polyprotein is 44.5 µM (active). In the experiment with Vero, the CC50 is > 40 µM (active).
The term EC50 denotes the concentration that produces a half-maximal response. `Clc1ccc2c(c1)C(c1cccs1)=NNC(c1cccnc1)=N2`: the EC50 was > 180 µM (inactive) in experiment [1], > 150 µM (inactive) in [2], > 150 µM (inactive) in [3] and 0.101 µM (active) in experiment [4].
By AC50 is commonly meant the concentration at which the activity in the assay is half-maximal. On to `O=[N+]([O-])c1cc(Cl)c(O)c2ncccc12`, for which the EC50 with Streptococcus is 5.77 µM (active); in [1] it was > 180 µM (inactive); in experiment [2], 15.5 µM (active); in experiment [6], 1.33 µM (active); in experiment [3], 1.48 µM (active); in [4], 0.055 µM (active). In addition, the AC50 in [5] is 1.86 µM (active). Also, in experiment [7], the IC50 is reported as > 50 µM (not active).
Consider `Cc1ccc(-c2nn(-c3ccccc3)cc2C=C2C(=O)CC(C)(C)CC2=O)cc1`, for which, on Genome polyprotein, the IC50 was 44.8 µM (active). The EC50 in experiment [8] was > 120 µM (not active); in experiment [9], 0.555 µM (active); in experiment [10], 0.454 µM (active); in [11], 1.35 µM (active); with H4, > 120 µM (not active); in experiment [12] it was > 12 µM (not active). The CC50 in the experiment with Vero was 19.1 µM (active).
As to `O=C(Nc1nnc(SCc2ccccc2)s1)c1ccc2[nH]cnc2c1`, the IC50 at Hexokinase-1 and on Hexokinase HKDC1 was > 80 µM (inactive) in each case.
`Cc1cc2nnc(SCC(=O)Nc3ccccc3)n2c2ccccc12`: the IC50 at Hexokinase-1 and at Hexokinase HKDC1 was > 80 µM (inactive) in each case.
